Laboratory results from the OligoGym collection.
“And” between values parts separate entries of the source, which are not always exact repeats. Equal values may be shown once. HELM strings list units from the 5' end as sugar, base in round brackets, then linkage (d deoxyribose, r ribose, m 2'-O-methyl, p phosphodiester). Strings are as the collection lists them, not checked against the first reports. ss, as = sense and antisense strand; [lna] = locked nucleic acid (LNA); [fl2r] = 2'-fluoro

Details: siRNA
Also: test system not given here.

First: RNA1{r(A)p.r(U)p.r(C)p.r(G)p.r(U)p.r(C)p.r(G)p.r(U)p.r(C)p.r(A)p.r(G)p.r(G)p.r(G)p.m(U)p.r(A)p.r(A)p.r(G)p.r(G)p.r(U)p.r(T)p.r(T)}|RNA2{r(A)p.r(C)p.r(C)p.r(U)p.m(U)p.r(A)p.r(C)p.r(C)p.r(C)p.r(U)p.r(G)p.r(A)p.r(C)p.r(G)p.r(A)p.r(C)p.r(G)p.r(A)p.r(U)p.r(T)p.r(T)}$$$RNA1{StrandType:ss}|RNA2{StrandType:as}$
Second: RNA1{r(A)p.r(U)p.r(C)p.r(U)p.r(G)p.r(A)p.r(A)p.r(G)p.r(A)p.r(A)p.r(G)p.r(G)p.r(A)p.r(G)p.r(A)p.r(A)p.r(A)p.r(A)p.r(A)p.[lna](T)p.[lna](T)}|RNA2{r(U)p.r(U)p.r(U)p.r(U)p.r(U)p.r(C)p.r(U)p.r(C)p.r(C)p.r(U)p.r(U)p.r(C)p.r(U)p.r(U)p.r(C)p.r(A)p.r(G)p.r(A)p.r(U)p.[lna](T)p.[lna](T)}$$$RNA1{StrandType:ss}|RNA2{StrandType:as}$
The target mRNA knockdown of the first is lower: 49% for the first, 93% for the second.

Going from “RNA1{r(A)p.r(U)p.r(C)p.r(U)p.r(G)p.r(A)p.r(A)p.r(G)p.r(A)p.r(A)p.r(G)p.r(G)p.r(A)p.r(G)p.r(A)p.r(A)p.r(A)p.r(A)p.r(A)p.d(T)p.d(T)}|RNA2{[lna](T)p.r(U)p.r(U)p.r(U)p.r(U)p.r(C)p.r(U)p.r(C)p.r(C)p.r(U)p.r(U)p.r(C)p.r(U)p.r(U)p.r(C)p.r(A)p.r(G)p.r(A)p.r(U)p.[lna](T)p.[lna](T)}$$$RNA1{StrandType:ss}|RNA2{StrandType:as}$” to “RNA1{r(A)p.r(U)p.r(C)p.r(U)p.r(G)p.r(A)p.r(A)p.r(G)p.r(A)p.r(A)p.r(G)p.r(G)p.r(A)p.r(G)p.r(A)p.r(A)p.r(A)p.r(A)p.r(A)p.d(T)p.d(T)}|RNA2{r(U)p.r(U)p.r(U)p.r(U)p.r(U)p.r(C)p.r(U)p.r(C)p.r(C)p.r(U)p.r(U)p.r(C)p.r(U)p.r(U)p.r(C)p.r(A)p.r(G)p.r(A)p.r(U)p.[lna](T)p.[lna](T)}$$$RNA1{StrandType:ss}|RNA2{StrandType:as}$”, the target mRNA knockdown rises from 45% to 93%.

First: RNA1{r(A)p.r(U)p.r(C)p.r(U)p.r(G)p.r(A)p.r(A)p.r(G)p.r(A)p.r(A)p.r(G)p.r(G)p.r(A)p.r(G)p.r(A)p.r(A)p.r(A)p.r(A)p.r(A)p.d(T)p.d(T)}|RNA2{r(U)p.r(U)p.r(U)p.r(U)p.r(U)p.r(C)p.r(U)p.r(C)p.r(C)p.r(U)p.r(U)p.r(C)p.r(U)p.r(U)p.r(C)p.r(A)p.r(G)p.r(A)p.r(U)p.d(T)p.d(T)}$$$RNA1{StrandType:ss}|RNA2{StrandType:as}$
Second: RNA1{r(A)p.r(U)p.r(C)p.r(U)p.r(G)p.r(A)p.r(A)p.r(G)p.r(A)p.r(A)p.r(G)p.r(G)p.r(A)p.r(G)p.r(A)p.r(A)p.r(A)p.r(A)p.r(A)p.r(T)p.r(T)}|RNA2{[lna](T)p.r(U)p.r(U)p.r(U)p.r(U)p.r(C)p.r(U)p.r(C)p.r(C)p.r(U)p.r(U)p.r(C)p.r(U)p.r(U)p.r(C)p.r(A)p.r(G)p.r(A)p.r(U)p.[lna](T)p.[lna](T)}$$$RNA1{StrandType:ss}|RNA2{StrandType:as}$
The target mRNA knockdown of the first is higher: 95% for the first, 22% for the second.

First: RNA1{r(A)p.r(U)p.r(C)p.r(U)p.r(G)p.r(A)p.r(A)p.r(G)p.r(A)p.r(A)p.r(G)p.r(G)p.r(A)p.r(G)p.r(A)p.r(A)p.r(A)p.r(A)p.r(A)p.r(T)p.r(T)}|RNA2{r(U)p.r(U)p.r(U)p.r(U)p.r(U)p.r(C)p.r(U)p.r(C)p.r(C)p.r(U)p.r(U)p.r(C)p.r(U)p.r(U)p.r(C)p.r(A)p.r(G)p.r(A)p.r(U)p.[lna](T)p.[lna](T)}$$$RNA1{StrandType:ss}|RNA2{StrandType:as}$
Second: RNA1{r(A)p.r(U)p.r(G)p.r(G)p.r(G)p.r(A)p.r(G)p.r(A)p.r(A)p.r(G)p.m(U)p.r(A)p.r(G)p.r(U)p.r(C)p.r(C)p.r(C)p.r(C)p.r(C)p.r(T)p.r(T)}|RNA2{r(G)p.r(G)p.r(G)p.r(G)p.r(G)p.r(A)p.r(C)p.m(U)p.r(A)p.r(C)p.r(U)p.r(U)p.r(C)p.r(U)p.r(C)p.r(C)p.r(C)p.r(A)p.r(U)p.r(T)p.r(T)}$$$RNA1{StrandType:ss}|RNA2{StrandType:as}$
The target mRNA knockdown of the first is higher: 90% for the first, 84% for the second.

Compared with “RNA1{r(C)p.[fl2r](C)p.r(A)p.r(G)p.r(C)p.r(G)p.r(A)p.r(G)p.r(C)p.r(C)p.[fl2r](C)p.r(A)p.r(A)p.r(A)p.r(A)p.[fl2r](G)p.r(A)p.r(A)p.r(A)p.r(T)p.r(T)}|RNA2{r(U)p.r(U)p.r(U)p.r(C)p.r(U)p.r(U)p.r(U)p.[fl2r](U)p.r(G)p.r(G)p.r(G)p.r(C)p.r(U)p.r(C)p.r(G)p.r(C)p.[fl2r](U)p.r(G)p.r(G)p.r(T)p.r(T)}$$$RNA1{StrandType:ss}|RNA2{StrandType:as}$”, “RNA1{r(C)p.[fl2r](C)p.r(A)p.r(G)p.r(C)p.r(G)p.r(A)p.r(G)p.r(C)p.r(C)p.[fl2r](C)p.r(A)p.r(A)p.r(A)p.r(A)p.r(G)p.r(A)p.r(A)p.r(A)p.r(T)p.r(T)}|RNA2{r(U)p.r(U)p.r(U)p.r(C)p.r(U)p.r(U)p.r(U)p.r(U)p.r(G)p.r(G)p.r(G)p.r(C)p.r(U)p.r(C)p.r(G)p.r(C)p.r(U)p.r(G)p.r(G)p.r(T)p.r(T)}$$$RNA1{StrandType:ss}|RNA2{StrandType:as}$” is higher in target mRNA knockdown: 82% for the first, 85% for the second.

Compared with “RNA1{r(C)p.[fl2r](U)p.r(A)p.[fl2r](A)p.r(G)p.[fl2r](C)p.r(C)p.[fl2r](U)p.r(G)p.[fl2r](U)p.r(U)p.[fl2r](U)p.r(C)p.[fl2r](U)p.r(U)p.[fl2r](C)p.r(C)p.[fl2r](U)p.r(C)p.r(T)p.r(T)}|RNA2{r(G)p.[fl2r](A)p.r(G)p.r(G)p.[fl2r](A)p.[fl2r](A)p.r(G)p.[fl2r](A)p.[fl2r](A)p.[fl2r](A)p.r(C)p.[fl2r](A)p.r(G)p.r(G)p.r(C)p.r(U)p.r(U)p.[fl2r](A)p.r(G)p.r(T)p.r(T)}$$$RNA1{StrandType:ss}|RNA2{StrandType:as}$”, “RNA1{r(C)p.[fl2r](U)p.r(A)p.r(A)p.r(G)p.r(C)p.r(C)p.r(U)p.r(G)p.r(U)p.r(U)p.r(U)p.r(C)p.r(U)p.r(U)p.r(C)p.r(C)p.r(U)p.r(C)p.r(T)p.r(T)}|RNA2{r(G)p.r(A)p.r(G)p.r(G)p.r(A)p.r(A)p.r(G)p.r(A)p.r(A)p.r(A)p.r(C)p.r(A)p.r(G)p.r(G)p.r(C)p.r(U)p.r(U)p.r(A)p.r(G)p.r(T)p.r(T)}$$$RNA1{StrandType:ss}|RNA2{StrandType:as}$” is higher in target mRNA knockdown: 75% for the first, 82% for the second.

With “RNA1{r(C)p.[fl2r](U)p.r(A)p.r(G)p.r(A)p.r(G)p.r(G)p.[fl2r](A)p.r(U)p.r(C)p.r(U)p.[fl2r](U)p.r(G)p.r(A)p.r(A)p.r(G)p.r(A)p.r(C)p.r(C)p.r(T)p.r(T)}|RNA2{r(G)p.r(G)p.r(U)p.r(C)p.r(U)p.r(U)p.r(C)p.r(A)p.r(A)p.r(G)p.r(A)p.r(U)p.r(C)p.r(C)p.r(U)p.r(C)p.[fl2r](U)p.r(A)p.r(G)p.r(T)p.r(T)}$$$RNA1{StrandType:ss}|RNA2{StrandType:as}$” the target mRNA knockdown was 78%.

With “RNA1{r(A)p.r(U)p.r(C)p.r(U)p.r(G)p.r(A)p.r(A)p.r(G)p.r(A)p.r(A)p.r(G)p.r(G)p.r(A)p.r(G)p.r(A)p.r(A)p.r(A)p.r(A)p.r(A)p.[lna](T)p.[lna](T)}|RNA2{[lna](T)p.r(U)p.r(U)p.r(U)p.r(U)p.r(C)p.r(U)p.r(C)p.r(C)p.r(U)p.r(U)p.r(C)p.r(U)p.r(U)p.r(C)p.r(A)p.r(G)p.r(A)p.r(U)p.[lna](T)p.[lna](T)}$$$RNA1{StrandType:ss}|RNA2{StrandType:as}$” the target mRNA knockdown was 52% and 63%.
